Test results reported in ChEMBL document CHEMBL1134477, “Combinatorial lead optimization of a neuropeptide FF antagonist” (J Med Chem, 2001).
pKi: −log10 of the molar value. Where a SMILES comes first, the peptide text is derived from it. The star is where a group is joined. Dansyl = CN(C)c1cccc2c(S(=O)(=O)*)cccc12; Desaminotyrosyl = O=C(CCc1ccc(O)cc1)*

What was measured:
[1] = K' value on the basis of IAM (immobilized artificial membrane) retention; type: functional
[2] = target: Neuropeptide FF receptor 2 (Rattus norvegicus, UniProt Q9EQD2); experiment: Binding affinity towards NPFF receptor was measured by the displacement of [125I]-YLFQPQRF-NH2
Neuropeptide FF receptor 2, sequence (Q9EQD2 whole entry): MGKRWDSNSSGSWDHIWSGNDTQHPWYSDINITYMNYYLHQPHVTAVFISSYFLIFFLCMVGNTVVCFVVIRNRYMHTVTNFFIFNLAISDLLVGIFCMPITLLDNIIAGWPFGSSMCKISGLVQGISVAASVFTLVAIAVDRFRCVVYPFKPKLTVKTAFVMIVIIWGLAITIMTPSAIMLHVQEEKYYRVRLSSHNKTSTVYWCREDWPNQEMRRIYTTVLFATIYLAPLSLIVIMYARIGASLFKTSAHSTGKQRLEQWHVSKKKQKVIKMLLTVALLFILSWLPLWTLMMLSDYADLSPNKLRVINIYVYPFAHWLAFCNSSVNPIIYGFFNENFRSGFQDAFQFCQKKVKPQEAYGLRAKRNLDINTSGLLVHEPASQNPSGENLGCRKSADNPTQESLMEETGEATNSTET

pKi [2]	Structure (SMILES)	kIAM' [1]
5.85	CN(C)c1cccc2c(S(=O)(=O)NCC(=O)N[C@@H](CO)C(=O)N[C@@H](CCCN=C(N)N)C(N)=O)cccc12 (Dansyl-Gly-Ser-Arg-NH2)	8
6.08	CC(C)C[C@H](NC(=O)[C@H](Cc1ccccc1)NC(=O)CCc1ccc(O)cc1)C(=O)N[C@@H](Cc1ccccc1)C(=O)N[C@@H](CCC(N)=O)C(=O)N1CCC[C@H]1C(=O)N[C@@H](CCC(N)=O)C(=O)N[C@@H](CCCNC(=N)N)C(N)=O (Desaminotyrosyl-FLFQPQR-NH2)	

Structure (SMILES)	pKi [2]	kIAM' [1]
CN(C)c1cccc2c(S(=O)(=O)N3CCC[C@H]3C(=O)N[C@@H](CCC(N)=O)C(=O)N[C@@H](CCCNC(=N)N)C(N)=O)cccc12 [DANSYLPQRAMIDE]	4.87	5.9
